Patent US7960408B2, “Quinolinyl and benzothiazolyl modulators” (Amgen Inc., priority 2000, dated 2011)

Experiments:
PPARγ = molecular target: T1, PPARγ (Homo sapiens, UniProt P37231); assay: PPARγ ligand binding assay utilizing [3H]-BRL 49653 as the radioligand; settings: concentration required to reduce by 50% the specific binding of [3H]-BRL 49653
T1 construct: made in house
T1 sequence (P37231 1-505): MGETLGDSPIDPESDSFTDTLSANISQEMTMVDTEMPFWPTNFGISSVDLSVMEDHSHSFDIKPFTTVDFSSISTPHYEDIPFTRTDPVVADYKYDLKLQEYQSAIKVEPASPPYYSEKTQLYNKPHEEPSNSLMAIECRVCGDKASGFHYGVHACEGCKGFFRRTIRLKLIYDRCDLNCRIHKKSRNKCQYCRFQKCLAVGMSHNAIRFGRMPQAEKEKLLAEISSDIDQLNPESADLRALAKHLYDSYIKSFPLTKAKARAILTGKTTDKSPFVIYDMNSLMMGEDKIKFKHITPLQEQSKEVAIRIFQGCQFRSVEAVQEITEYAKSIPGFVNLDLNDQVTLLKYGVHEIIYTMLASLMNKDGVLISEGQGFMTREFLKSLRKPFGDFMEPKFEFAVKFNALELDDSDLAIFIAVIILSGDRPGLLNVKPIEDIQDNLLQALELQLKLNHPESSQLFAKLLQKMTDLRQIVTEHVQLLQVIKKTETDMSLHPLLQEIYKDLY
Excerpt: The compounds of the present invention can be evaluated for modulation of the PPARγ receptor using assays such as those described in Jiang, et al., Nature 391:82-86 (1998), Ricote, et al., Nature 391:79-82 (1998) and Lehmann, et al., J. Biol. Chem. 270(12): 12953-12956 (1995). Alternatively, the compounds can be evaluated for their ability to displace radiolabeled BRL 49653 from a PPARγ-GST fusion protein as follows:
PPARγ-GST fusion protein (prepared according to standard procedures), [^3H]—BRL 49653 having 50 Ci/mmol specific activity, Polyfiltronics Unifilter 350 filtration plate and glutathione-Sepharose® beads (from Pharmacia: washed twice with 10× binding buffer in which BSA and DTI can be left out).
Binding buffer (10 mM Tris-HCl, pH 8.0, 50 mM KCI, 10 mM DTT, 0.02% BSA and 0.01% NP-40) is added in 80-μL amounts to the wells of the filtration plate. The test compound is then added in 10 μL of DMSO. The PPARγ-GST fusion protein and radiolabeled BRL compound are premixed in binding buffer containing 10 mM DTT and added in 10-μL amounts to the wells of the plate to provide final concentrations of 1 μg/well of PPARγ-GST fusion protein and 10 nM [^3H]—BRL 49653 compound. The plate is incubated for 15 min. Glutathione-agarose bead is added in 50 μL of binding buffer, and the plate is vigorously shaken for one hour. The plate is washed four times with 200 μL/well of binding buffer (without BSA and DTT). The bottom of the plate is sealed and 200 μL/well of scintillation cocktail is added. The top of the plate is then sealed and the radioactivity is determined.
IC50 values are defined as the concentration of test compounds required to reduce by 50% the specific binding of [^3H]—BRL 49653 and are represented by (+) <30 μM; (++) <10 μM; (+++) <1 μM.

| IC50 (PPARγ) | melting point | Structure (SMILES) |
| --- | --- | --- |
| < 1000 nM | 219.6 °C | O=S(=O)(Nc1cc(Cl)c(Sc2cnc3ccccc3c2)c(Cl)c1)c1ccccc1Cl [Compound 3] |
| < 1000 nM | 228 to 232 °C | O=C(O)c1ccc2ncc(Oc3c(Cl)cc(NS(=O)(=O)c4ccc(Cl)cc4Cl)cc3Cl)cc2c1 [Compound 47, 3-[2,6-Dichloro-4-(2,4-dichloro-benzenesulfonylamino)-phenoxy]-quinoline-6-carboxylic acid] |
| < 1000 nM | 263 to 266 °C | O=C(O)c1cccc2cc(Oc3c(Cl)cc(NS(=O)(=O)c4ccc(Cl)cc4Cl)cc3Cl)cnc12 [Compound 48, 3-[2,6-Dichloro-4-(2,4-dichloro-benzenesulfonylamino)-phenoxy]-quinoline-8-carboxylic acid] |
| < 1000 nM | 82 to 84 °C | O=S(=O)(Nc1cc(Cl)c(Oc2nc3ccc(Cl)cc3s2)c(Cl)c1)c1ccc(C(F)(F)F)cc1Cl [Compound 103, 2-Chloro-N-[3,5-dichloro-4-(6-chloro-benzothiazol-2-yloxy)-phenyl]-4-trifluoromethyl-benzenesulfonamide] |
| 1000 to 10000 nM | 73 to 75 °C | O=S(=O)(Nc1cc(Cl)c(Oc2nc3ccc(Cl)cc3s2)c(Cl)c1)c1ccc(Cl)cc1Cl [Compound 104, 2,4-Dichloro-N-[3,5-dichloro-4-(6-chloro-benzothiazol-2-yloxy)-phenyl]benzenesulfonamide] |
| < 1000 nM | 164 to 165 °C | COc1ccc2nc(Oc3c(Cl)cc(NS(=O)(=O)c4ccc(C(F)(F)F)cc4Cl)cc3Cl)sc2c1 [Compound 106, 2-Chloro-N-[3,5-dichloro-4-(6-methoxybenzothiazol-2-yloxy)-phenyl]-4-trifluoromethyl-benzenesulfonamide] |
| < 1000 nM | – | O=[N+]([O-])c1cc(C(F)(F)F)ccc1S(=O)(=O)Nc1cc(Cl)c(Oc2nc3ccc(Cl)cc3s2)c(Cl)c1 [Compound 435, N-[3,5-Dichloro-4-(6-chloro-benzothiazol-2-yloxy)-phenyl]-2-nitro-4-trifluoromethyl-benzenesulfonamide] |
| 1000 to 10000 nM | – | CC(=O)c1ccc(S(=O)(=O)Nc2cc(Cl)c(Oc3nc4ccc(Cl)cc4s3)c(Cl)c2)cc1 [Compound 436, 4-Acetyl-N-[3,5-dichloro-4-(6-chloro-benzothiazol-2-yloxy)-phenyl]-benzenesulfonamide] |
| < 1000 nM | – | O=[N+]([O-])c1ccc2nc(Oc3c(Cl)cc(NS(=O)(=O)c4ccc(C(F)(F)F)cc4Cl)cc3Cl)sc2c1 [Compound 438, 2-Chloro-N-[3,5-dichloro-4-(6-nitro-benzothiazol-2-yloxy)-phenyl]-4-trifluoromethyl-benzenesulfonamide] |
| < 1000 nM | – | CS(=O)(=O)Nc1ccc2nc(Oc3c(Cl)cc(NS(=O)(=O)c4ccc(C(F)(F)F)cc4Cl)cc3Cl)sc2c1 [Compound 440, 2-Chloro-N-[3,5-dichloro-4-(6-methanesulfonylamino-benzothiazol-2-yloxy)-phenyl]-4-trifluoromethyl-benzenesulfonamide] |
| < 1000 nM | – | CS(=O)(=O)c1ccc2nc(Oc3c(Cl)cc(NS(=O)(=O)c4ccc(C(F)(F)F)cc4Cl)cc3Cl)sc2c1 [Compound 441, 2-Chloro-N-[3,5-dichloro-4-(6-methanesulfonyl-benzothiazol-2-yloxy)-phenyl]-4-trifluoromethyl-benzenesulfonamide] |
| < 1000 nM | – | O=[N+]([O-])c1ccc2nc(Oc3ccc(NS(=O)(=O)c4ccc(C(F)(F)F)cc4Cl)cc3Cl)sc2c1 [Compound 442, 2-Chloro-N-[3-chloro-4-(6-nitro-benzothiazol-2-yloxy)-phenyl]-4-trifluoromethyl-benzenesulfonamide] |
| < 1000 nM | – | CS(=O)(=O)Nc1ccc2nc(Oc3ccc(NS(=O)(=O)c4ccc(C(F)(F)F)cc4Cl)cc3Cl)sc2c1 [Compound 444, 2-Chloro-N-[3-chloro-4-(6-methanesulfonylamino-benzothiazol-2-yloxy)-phenyl]-4-trifluoromethyl-benzenesulfonamide] |
| < 1000 nM | – | CS(=O)(=O)c1ccc2nc(Oc3ccc(NS(=O)(=O)c4ccc(C(F)(F)F)cc4Cl)cc3Cl)sc2c1 [Compound 445, 2-Chloro-N-[3-chloro-4-(6-methanesulfonyl-benzothiazol-2-yloxy)-phenyl]-4-trifluoromethyl-benzenesulfonamide] |
| 1000 to 10000 nM | – | O=[N+]([O-])c1ccc2sc(Oc3c(Cl)cc(NS(=O)(=O)c4ccc(C(F)(F)F)cc4Cl)cc3Cl)nc2c1 [Compound 455, 2-Chloro-N-[3,5-dichloro-4-(5-nitro-benzothiazol-2-yloxy)phenyl]-4-trifluoromethyl-benzenesulfonamide] |
| < 1000 nM | – | CS(=O)(=O)Nc1ccc2sc(Oc3c(Cl)cc(NS(=O)(=O)c4ccc(C(F)(F)F)cc4Cl)cc3Cl)nc2c1 [Compound 457, 2-Chloro-N-[3,5-dichloro-4-(5-methanesulfonylamino-benzothiazol-2-yloxy)-phenyl]-4-trifluoromethyl-benzenesulfonamide] |
| < 1000 nM | – | CS(=O)(=O)c1ccc2sc(Oc3c(Cl)cc(NS(=O)(=O)c4ccc(C(F)(F)F)cc4Cl)cc3Cl)nc2c1 [Compound 458, 2-Chloro-N-[3,5-dichloro-4-(5-methanesulfonyl-benzothiazol-2-yloxy)-phenyl]-4-trifluoromethyl-benzenesulfonamide] |
| > 30000 nM | – | CC(C)(C)c1ccc(S(=O)(=O)Nc2cc(Cl)cc(Oc3nc4cc(Cl)ccc4s3)c2)cc1 [Compound 501, 4-tert-Butyl-N-[3-chloro-5-(5-chloro-benzothiazole-2-yloxy)]-benzenesulfonamide] |
| > 30000 nM | – | COc1ccc(OC)c(S(=O)(=O)Nc2cc(Cl)cc(Oc3nc4cc(Cl)ccc4s3)c2)c1 [Compound 502, N-[3-Chloro-5-(5-chloro-benzothiazole-2-yloxy)-phenyl]-2,5-dimethoxybenzenesulfonamide] |
| 10000 to 30000 nM | – | O=S(=O)(Nc1ccc(Oc2nc3c(Cl)cccc3s2)c(Cl)c1)c1ccc(C(F)(F)F)cc1Cl [Compound 503, 2-Chloro-N-[3-chloro-4-(4-chloro-benzothiazol-2-oxy)-phenyl]-4-trifluoromethylbenzenesulfonamide] |
| 10000 to 30000 nM | – | Cc1cccc2sc(Oc3ccc(NS(=O)(=O)c4ccc(C(F)(F)F)cc4Cl)cc3Cl)nc12 [Compound 504, 2-Chloro-N-[3-chloro-4-(4-methyl-benzothiazol-2-oxy)-phenyl]-4-trifluoromethylbenzenesulfonamide] |
| 10000 to 30000 nM | – | Cc1cccc2sc(Oc3c(Cl)cc(NS(=O)(=O)c4ccc(C(F)(F)F)cc4Cl)cc3Cl)nc12 [Compound 505, 2-Chloro-N-[3,5-dichloro-4-(4-methyl-benzothiazol-2-oxy)-phenyl]-4-trifluoromethylbenzenesulfonamide] |
